From patent publication US20240009151A1, “FORMULATIONS OF AZOBENZENE PHOTOREACTIVE COMPOUNDS” (BAYON THERAPEUTICS, INC., priority 2020, published 2024)

What was measured:
[1] = tested on: RGCs of rd1-GCaMP6f retina; experiment: 2-photon live calcium imaging of isolated rd1-GCaMP6f retina, fraction of light-responsive cells; assay type: cell-based, mouse; details: 100 μM Compound 1; lower stoichiometry of SBE-CD (300 μM vs 1200 μM), synaptic blockers
Protocol: To better understand how Compound 1 was photosensitizing RGCs, an rd1 mouse line was generated expressing the genetically encoded calcium indicator GCalVIP6f under control of Synapsin-1 to label all neurons for 2-photon live imaging. Isolated retina from these mice were then treated with 100 uM Compound 1 and either 300 uM or 1200 uM SBE-CD and imaged in the presence of synaptic blockers. The latter concentration was chosen to increase the amount of available cyclodextrin around to potentiate the photosensitization while not completely quenching it. Due to the spectral overlap of Compound 1 absorbance with GCaMP6fref, an interline stimulus module was developed for the 2-photon microscope. […]
To determine which neurons were responding to light, collected movies were cross correlated to the stimulus periods using an autocorrelation estimation. […] These resulting correlated micrographs were then used to quantify the number of light-responsive cells. […]
The total number of cells were counted from a max Z-projection the same movies and used to determine the relative fraction of light-responsive cells per Compound 1 formulation. […] The activity was also rastered using the recorded ΔF/F of all neurons (FIG. 2e).

[2] = tested on: retinal ganglion cells (RGCs) from rd1 retina; experiment: multielectrode array (MEA) electrophysiology of isolated rd1 retinas, light response index (LRI); assay type: cell-based, mouse
Protocol: Isolated rd1 retinas were treated with formulations of 100 μM Compound 1 and increasing concentrations of SBE-CD, from 300 μM to 34000 μM. Light responsivity was measured using multielectrode array (MEA) electrophysiology. […] To quantify the degree of light-responsivity for each recorded cell, the normalized relative difference in observed spike frequencies with and without light stimulus was defined as the light response index (LRI): […]

[3] = tested on: RGCs of rd1 retina; experiment: single in vivo injection, time course of photosensitization of RGCs (spike rasters, LRI); parameters: species or system mouse; details: 100 μM Compound 1 and 1200 μM SBE-CD, observed up to 28 days post-injection
Excerpt: FIG. 3e is a scatter plot correlating the strength of light responses in RGCs and the abundance of Compound 1 in retinal tissue.

Question: Which “number of RGCs that were light responsive (fraction of light-responding cells)” value [1] does the source give for `CCN(Cc1ccccc1)c1ccc(/N=N/c2ccc(NC(=O)C[N+](CC)(CC)CC)cc2)cc1` [Compound 1] here?
Answer: Its value is “greater number of RGCs that were light responsive”.

Question: And the “dependence of LRI on the amount of SBE-CD used” value ([2]; 100 μM Compound 1, SBE-CD from 300 μM to 34000 μM)?
Answer: The value was “dose-response”.

Question: And the “light response of RGCs (MEA)” value ([2]; 100 μM Compound 1 with 300 μM SBE-CD (minimal amount))?
Answer: Its value is “strongest light-responses”.

Question: And the “light response of RGCs (MEA)” value ([2]; 100 μM Compound 1 with 34000 μM SBE-CD (excess))?
Answer: Its value is “nearly eliminated any light response”.

Question: What about the “photosensitization of the cells (LRI histograms)” value ([2]; excess of SBE-CD, compared to untreated rd1 tissue) of the same compound?
Answer: The value was “very weakly”.

Question: And the “number of light-responding RGCs (LRI histograms)” value ([2]; minimal amount of SBE-CD)?
Answer: Its value is “greatly increased”.

Question: What about the “duration of photosensitization of RGCs” value [3] of the same compound?
Answer: The value was “prolongs photosensitization”.
